Assay results reported in patent publication US8440619B2, “Utilization of hypertension/hypercardia-preventing effect of D-allose” (National University Corporation Kagawa University, priority 2005, dated 2013).

Key:
[1] = test system: active oxygen in rat thoracic aorta; assay: Generated active oxygen in thoracic aorta, lucigenin method; type: in vivo; conditions: DS rats, 4% salt diet, 2 g daily/kg orally, 4 weeks
From the text: Salt-sensitive male Dahl rats of age 7 weeks and with the onset of hypertension (DS) and salt-insensitive male Dahl rats of the same age (DR) were used. The DS rats were fed with a 0.5% salt diet or a 4% salt diet (Oriental Yeast Co., Ltd.) for 4 weeks (individually referred to as 0.5% salt diet group and 4% salt diet group). During the period, D-allose or D-glucose was orally given to the 4% salt diet group at 2 g daily/kg body weight (D-allose group or D-glucose group). The DR rats were fed with the 0.5% salt diet group and used as a normal control group. Blood pressure was measured by the tail-cuff method over time, while before salt loading and on the completion of salt loading, urine was collected for one day. On the last day of the observation period, the thoracic aorta was resected. A part thereof was used to quantify the amount of generated active oxygen in the aorta by the lucigenin method, while another part thereof was used to compare the amount of generated active oxygen between the groups by the dihydroxyethidium (DHE) fluorescence method. So as to assay the expression level of the messenger RNA of the NADPH oxidase involved in the increase of tissue oxidative stress (J Hypertens. 2004; 22:2161-2168), further, the renal cortex and the thoracic aorta were partially stored at −80° C. […] Then, the luminescence was counted with a luminescence reader (BLR-301; Aloka).

[2] = test system: Nox-1 messenger RNA; assay: Messenger RNA of NADPH oxidase-composing factor Nox1; type: in vivo, rat; conditions: DS rats, 4% salt diet, 4 weeks, DR rats = 1.00
From the text: (§1) Salt-sensitive male Dahl rats of age 7 weeks and with the onset of hypertension (DS) and salt-insensitive male Dahl rats of the same age (DR) were used. The DS rats were fed with a 0.5% salt diet or a 4% salt diet (Oriental Yeast Co., Ltd.) for 4 weeks (individually referred to as 0.5% salt diet group and 4% salt diet group). During the period, D-allose or D-glucose was orally given to the 4% salt diet group at 2 g daily/kg body weight (D-allose group or D-glucose group). The DR rats were fed with the 0.5% salt diet group and used as a normal control group. Blood pressure was measured by the tail-cuff method over time, while before salt loading and on the completion of salt loading, urine was collected for one day. On the last day of the observation period, the thoracic aorta was resected. A part thereof was used to quantify the amount of generated active oxygen in the aorta by the lucigenin method, while another part thereof was used to compare the amount of generated active oxygen between the groups by the dihydroxyethidium (DHE) fluorescence method. So as to assay the expression level of the messenger RNA of the NADPH oxidase involved in the increase of tissue oxidative stress (J Hypertens. 2004; 22:2161-2168), further, the renal cortex and the thoracic aorta were partially stored at −80° C. The levels of the messenger RNAs of p22phox and Nox analogs (Nox-1, gp91phox, Nox-4) as the NADPH oxidase-composing factors were assayed and compared in between thoracic aorta and renal cortex.

[3] = test system: spontaneously hypertensive rats (SHR); assay: Systolic blood pressure by the tail-cuff method in spontaneously hypertensive rats; type: in vivo, rat; conditions: 2 g daily/kg orally, 4 weeks
From the text: (§2) Male spontaneously hypertensive rats of age 8 weeks (SHR) and male Wister KYOTO rats (WKY) of the same age were used. SHR was fed with a 0.5% salt diet or a 8% salt diet (Oriental Yeast Co., Ltd.) for 4 weeks (individually referred to as the 0.5% salt diet group and the 8% salt diet group). Additionally, D-allose or D-glucose was orally given to the 0.5% salt diet group and the 8% salt diet group, at 2 g daily/kg body weight (D-allose group or D-glucose group) during the period. WKY was fed with the 0.5% salt diet and used as a normal control group. Systolic blood pressure was measured by the tail-cuff method over time.

[4] = Urine generation, Na and protein excretion in urine in DS rats; type: in vivo, rat
From the text: (§3) Salt-sensitive male Dahl rats of age 7 weeks and with the onset of hypertension (DS) and salt-insensitive male Dahl rats of the same age (DR) were used. The DS rats were fed with a 0.5% salt diet or a 4% salt diet (Oriental Yeast Co., Ltd.) for 4 weeks (individually referred to as 0.5% salt diet group and 4% salt diet group). During the period, D-allose or D-glucose was orally given to the 4% salt diet group at 2 g daily/kg body weight (D-allose group or D-glucose group). The DR rats were fed with the 0.5% salt diet group and used as a normal control group. Blood pressure was measured by the tail-cuff method over time, while before salt loading and on the completion of salt loading, urine was collected for one day. On the last day of the observation period, the thoracic aorta was resected. A part thereof was used to quantify the amount of generated active oxygen in the aorta by the lucigenin method, while another part thereof was used to compare the amount of generated active oxygen between the groups by the dihydroxyethidium (DHE) fluorescence method. So as to assay the expression level of the messenger RNA of the NADPH oxidase involved in the increase of tissue oxidative stress (J Hypertens. 2004; 22:2161-2168), further, the renal cortex and the thoracic aorta were partially stored at −80° C.

[5] = test system: p22phox messenger RNA; assay: Messenger RNA of NADPH oxidase-composing factor p22phox; type: in vivo, rat; conditions: DS rats, 4% salt diet, 4 weeks, DR rats = 1.00
From the text: as §1

[6] = test system: salt-sensitive Dahl rats with the onset of hypertension (DS); assay: Blood pressure by the tail-cuff method in salt-loaded salt-sensitive Dahl rats; type: in vivo, rat; conditions: 4% salt diet, 2 g daily/kg body weight orally, in 4 weeks
From the text: as §3

[7] = test system: gp91phox messenger RNA; assay: Messenger RNA of NADPH oxidase-composing factor gp91phox; type: in vivo, rat; conditions: DS rats, 4% salt diet, 4 weeks, DR rats = 1.00
From the text: as §1

[8] = test system: Nox-4 messenger RNA; assay: Messenger RNA of NADPH oxidase-composing factor Nox4; type: in vivo, rat; conditions: DS rats, 4% salt diet, 4 weeks, DR rats = 1.00
From the text: as §1

[9] = Body weight, heart weight and kidney weight in SHR; type: in vivo, rat; conditions: 2 g daily/kg orally, 4 weeks
From the text: as §2

[10] = test system: active oxygen in rat thoracic aorta; assay: Generated active oxygen in thoracic aorta, DHE fluorescence method; type: in vivo; conditions: DS rats, 4% salt diet, 2 g daily/kg orally, 4 weeks
From the text: as §3, with “[…] A 10-μm ring slice piece was prepared from the embedded aorta with a cryostat,” for “So as”, “observe” for “assay”, “intra-tissue localization of ethidium generated from the specific reaction between active oxygen and DHE, along with the intensity” for “expression level”, “luminescence, with a co-focus microscope (Bio-Rad).” for “messenger RNA of the NADPH oxidase involved in the increase of tissue oxidative stress (J Hypertens. 2004; 22:2161-2168), further, the renal cortex and the thoracic aorta were partially stored at −80° C.”

[11] = Body weight, organ weight and feed intake in DS rats; type: in vivo, rat; conditions: 4% salt diet, 2 g daily/kg orally, after 4-week feeding
From the text: as §3

[12] = 4% salt diet, 2 g daily/kg orally, after 4-week feeding

Structure (SMILES) | active oxygen generation in thoracic aorta (lucigenin method) [1] | Nox1 messenger RNA level ([2]; Aorta) | Nox1 messenger RNA level ([2]; Renal cortex) | systolic blood pressure ([3]; 0.5% salt diet) [mmHg] | systolic blood pressure ([3]; 8% salt diet) [mmHg] | Protein excretion in urine [4, 12] [mg/day] | Protein excretion in urine ([4]; before salt loading (baseline)) [mg/day] | p22phox messenger RNA level ([5]; Aorta) | p22phox messenger RNA level ([5]; Renal cortex) | diastolic pressure [6] [mmHg] | systolic pressure [6] [mmHg] | gp91phox messenger RNA level ([7]; Aorta) | gp91phox messenger RNA level ([7]; Renal cortex) | Nox4 messenger RNA level ([8]; Aorta) | Nox4 messenger RNA level ([8]; Renal cortex) | Heart weight ([9]; 0.5% salt diet) [mg] | Heart/body weight ratio ([9]; 0.5% salt diet) | Kidney weight ([9]; 0.5% salt diet) [mg] | Kidney/body weight ratio ([9]; 0.5% salt diet) | Heart weight ([9]; 8% salt diet) [mg] | further results
O=C[C@H](O)[C@H](O)[C@H](O)[C@H](O)CO [D-allose] | suppressed to the level as observed in the 0.5% salt diet group or the DR normal control group | 0.74 ± 0.22 | 0.88 ± 0.11 | 180±5 | 222±8 | 31.3 ± 11.8 | 9.5 ± 1.2 | 0.83 ± 0.21 | 1.18 ± 0.20 | 102±4 | 135±7 | 1.34 ± 0.27 | 0.97 ± 0.15 | 1.36 ± 0.10 | 1.32 ± 0.22 | 1042 ± 23 | 3.56 ± 0.05 ×10^−3 | 1212 ± 34 | 4.15 ± 0.08 ×10^−3 | 1337 ± 50 | Heart/body weight ratio ([9]; 8% salt diet): 4.40 ± 0.06 ×10^−3; Kidney weight ([9]; 8% salt diet): 1387 ± 61 mg; Kidney/body weight ratio ([9]; 8% salt diet): 4.57 ± 0.17 ×10^−3; signal accumulation in the aorta media nucleus on DHE fluorescence images [10]: suppressed; Heart weight [11]: 994 ± 28 mg; Heart/body weight ratio [11]: 2.88 ± 0.07 ×10^−3; Kidney weight [11]: 1389 ± 25 mg; Kidney/body weight ratio [11]: 4.03 ± 0.03 ×10^−3
O=C[C@H](O)[C@@H](O)[C@H](O)[C@H](O)CO [D-glucose] | no such suppressive effect was observed | 0.85 ± 0.24 | 1.03 ± 0.24 | 201±7 | 255±5 | 85.3 ± 20.5 | 13.1 ± 3.2 | 1.14 ± 0.32 | 1.19 ± 0.06 | 125±6 | 162±5 | 1.90 ± 0.19 | 1.20 ± 0.28 | 1.75 ± 0.24 | 1.38 ± 0.16 | 1180 ± 35 | 3.92 ± 0.15 ×10^−3 | 1206 ± 32 | 3.02 ± 0.02 ×10^−3 | 1437 ± 38 | Heart/body weight ratio ([9]; 8% salt diet): 4.70 ± 0.13 ×10^−3; Kidney weight ([9]; 8% salt diet): 1342 ± 41 mg; Kidney/body weight ratio ([9]; 8% salt diet): 4.40 ± 0.19 ×10^−3; signal accumulation in the aorta media nucleus on DHE fluorescence images [10]: never changed; Heart weight [11]: 1066 ± 35 mg; Heart/body weight ratio [11]: 3.00 ± 0.08 ×10^−3; Kidney weight [11]: 1370 ± 36 mg; Kidney/body weight ratio [11]: 3.85 ± 0.07 ×10^−3
